# Test results from ChEMBL document CHEMBL4346726 (Bioorg Med Chem Lett, 2019).
# Columns and labels:
# [1] = Fraction absorbed in cynomolgus monkey at 1 mg/kg, po; assay type: ADME, organism-based, Macaca fascicularis; conditions: in vivo, read-out: Fabs
# [2] = Oral bioavailability in dog at 1 mg/kg; assay type: ADME, […], Canis lupus familiaris; conditions: in vivo
# Hepatitis C virus [3] = test: Antiviral activity against HCV genotype 2a in RLuc cells assessed as reduction in viral replication by luciferase reporter gene assay; assay type: functional, organism-based, Hepacivirus hominis; conditions: subtype 2a
# Hepatitis C virus [4] = test: Antiviral activity against HCV genotype 1b harboring D168E mutant in RLuc cells assessed as reduction in viral replication by luciferase reporter gene assay; assay type: functional, organism-based, Hepacivirus hominis; conditions: subtype 1b
# [5] = Volume of distribution at steady state in cynomolgus monkey at 0.5 mg/kg, iv or 1 mg/kg, po; assay type: ADME, organism-based, Macaca fascicularis; conditions: in vivo, read-out: Vdss
# [6] = Fraction unbound in rat plasma; assay type: ADME, cell-free
# Hepatitis C virus [7] = test: Antiviral activity against HCV genotype 4a in RLuc cells assessed as reduction in viral replication by luciferase reporter gene assay; assay type: functional, organism-based, Hepacivirus hominis; conditions: subtype 4a
# [8] = Protein binding in cynomolgus monkey plasma; assay type: ADME, Macaca fascicularis; conditions: read-out: PPB
# [9] = Fraction unbound in dog plasma; assay type: ADME, cell-free, Canis lupus familiaris
# Hepatitis C virus [10] = test: Antiviral activity against HCV genotype 3a in RLuc cells assessed as reduction in viral replication by luciferase reporter gene assay; assay type: functional, organism-based, Hepacivirus hominis, subtype 3a; conditions: Hepatitis C virus, subtype 3a
# Hepacivirus hominis = test: Binding affinity to HCV NS3/4a protease assessed as compound-protein adduct formation per mg protein using radiolabelled compound
# Hepatitis C virus [11] = test: Antiviral activity against HCV genotype 1a in RLuc cells assessed as reduction in viral replication by luciferase reporter gene assay; assay type: functional, organism-based, Hepacivirus hominis; conditions: subtype 1a
# Hepatitis C virus [12] = test: Antiviral activity against HCV genotype 1b in RLuc cells assessed as reduction in viral replication by luciferase reporter gene assay; assay type: functional, organism-based, Hepacivirus hominis; conditions: subtype 1b
# Hepatitis C virus [13] = test: Antiviral activity against HCV genotype 2b in RLuc cells assessed as reduction in viral replication by luciferase reporter gene assay; assay type: functional, organism-based, Hepacivirus hominis; conditions: subtype 2b
# [14] = Fraction unbound in cynomolgus monkey plasma; assay type: ADME, cell-free, Macaca fascicularis
# [15] = Drug uptake in organic-anion-transporting polypeptide over expressing CHO cells; assay type: ADME, cell-based, Cricetulus griseus; conditions: chinese hamster, TDE = time-dependent effect
# Hepatitis C virus [16] = test: Antiviral activity against HCV genotype 5a in RLuc cells assessed as reduction in viral replication by luciferase reporter gene assay; assay type: functional, organism-based, Hepacivirus hominis; conditions: subtype 5a
# [17] = Drug uptake in human hepatocytes; assay type: ADME, cell-based, Hepatocyte; conditions: TDE = time-dependent effect
# [18] = Oral bioavailability in rat at 3 mg/kg; assay type: ADME, organism-based; conditions: in vivo
# Hepatitis C virus [19] = test: Antiviral activity against HCV genotype 1a harboring R155K mutant in RLuc cells assessed as reduction in viral replication by luciferase reporter gene assay; assay type: functional, organism-based, Hepacivirus hominis; conditions: subtype 1a
# [20] = Inhibition of HCV genotype 3a NS3/4a protease by enzymatic assay; set-up: species or system Hepatitis C virus subtype 3a
# [21] = Oral bioavailability in cynomolgus monkey at 1 mg/kg; assay type: ADME, organism-based, Macaca fascicularis; conditions: in vivo
# [22] = Ratio of drug level in rat liver to plasma at 1 mg/kg, iv or 3 mg/kg, po measured at 2 hr; assay type: ADME, organism-based
# [23] = Half life in rat at 1 mg/kg, iv or 3 mg/kg, po; assay type: ADME, organism-based; conditions: in vivo
# [24] = Clearance in rat at 1 mg/kg, iv or 3 mg/kg, po; assay type: ADME, organism-based; conditions: in vivo
# [25] = Clearance in cynomolgus monkey at 0.5 mg/kg, iv or 1 mg/kg, po; assay type: ADME, organism-based, Macaca fascicularis; conditions: in vivo
# Hepatitis C virus [26] = test: Antiviral activity against HCV genotype 6a in RLuc cells assessed as reduction in viral replication by luciferase reporter gene assay; assay type: functional, organism-based, Hepacivirus hominis; conditions: subtype 6a
# [27] = Volume of distribution at steady state in dog at 0.5 mg/kg, iv or 1 mg/kg, po; assay type: ADME, […], Canis lupus familiaris; conditions: in vivo, read-out: Vdss
# [28] = Volume of distribution at steady state in rat at 1 mg/kg, iv or 3 mg/kg, po; assay type: ADME, organism-based; conditions: in vivo, read-out: Vdss
# Hepatitis C virus [29] = test: Antiviral activity against HCV genotype 1a harboring A156T mutant in RLuc cells assessed as reduction in viral replication by luciferase reporter gene assay; assay type: functional, organism-based, Hepacivirus hominis; conditions: subtype 1a
# [30] = Half life in cynomolgus monkey at 0.5 mg/kg, iv or 1 mg/kg, po; assay type: ADME, organism-based, Macaca fascicularis; conditions: in vivo
# [31] = Selectivity ratio of EC50 for antiviral activity against HCV genotype 3a to EC50 for antiviral activity against HCV genotype 1a; assay type: functional
# [32] = Clearance in dog at 0.5 mg/kg, iv or 1 mg/kg, po; assay type: ADME, […], Canis lupus familiaris; conditions: in vivo
# [33] = Ratio of drug level in cynomolgus monkey liver to plasma at 0.5 mg/kg, iv or 1 mg/kg, po measured at 2 hr; assay type: ADME, organism-based, Macaca fascicularis
# [34] = Fraction absorbed in rat at 3 mg/kg, po; assay type: ADME, organism-based; conditions: in vivo, read-out: Fabs
# Hepatitis C virus [35] = test: Antiviral activity against HCV genotype 1a harboring Q80K mutant in RLuc cells assessed as reduction in viral replication by luciferase reporter gene assay; assay type: functional, organism-based, Hepacivirus hominis; conditions: subtype 1a
# Hepatitis C virus [36] = test: Antiviral activity against HCV genotype 1b harboring A156T mutant in RLuc cells assessed as reduction in viral replication by luciferase reporter gene assay; assay type: functional, organism-based, Hepacivirus hominis; conditions: subtype 1b
# [37] = Ratio of drug level in dog liver to plasma at 0.5 mg/kg, iv or 1 mg/kg, po measured at 2 hr; assay type: ADME, […], Canis lupus familiaris
# [38] = Fraction unbound in human plasma; assay type: ADME, cell-free
# [39] = Protein binding in human plasma; assay type: ADME; conditions: read-out: PPB
# [40] = Fraction absorbed in dog at 1 mg/kg, po; assay type: ADME, […], Canis lupus familiaris; conditions: in vivo, read-out: Fabs
# [41] = Protein binding in dog plasma; assay type: ADME, Canis lupus familiaris; conditions: read-out: PPB
# [42] = Half life in dog at 0.5 mg/kg, iv or 1 mg/kg, po; assay type: ADME, […], Canis lupus familiaris; conditions: in vivo
# [43] = Steady state half life in human at 30 to 300 mg administered once daily for 7 days measured under phase 1 clinical trials; assay type: ADME; conditions: in vivo, read-out: t1/2ss
# [44] = Protein binding in rat plasma; assay type: ADME; conditions: read-out: PPB
compound,measurement,setting,value
CC[C@@H]1[C@@H]2CN(C(=O)[C@H](C(C)(C)C)NC(=O)O[C@@H]3C[C@H]3CCCCC(F)(F)c3nc4ccc(OC)cc4nc3O2)[C@@H]1C(=O)N[C@]1(C(=O)NS(=O)(=O)C2(C)CC2)C[C@H]1C(F)F,Fa,[1],23%
same,bioavailability,[2],27%
same,EC50,Hepatitis C virus [3],3.7 nM
same,EC50,Hepatitis C virus [4],4 nM
same,Vd,[5],0.8 L/kg
same,Fu,[6],0.42%
same,EC50,Hepatitis C virus [7],4.9 nM
same,fraction unbound,[8],< 0.01
same,Fu,[9],0.28%
same,EC50,Hepatitis C virus [10],6.1 nM
same,PB,Hepacivirus hominis,< 1 pmol/mg
same,EC50,Hepatitis C virus [11],3.9 nM
same,EC50,Hepatitis C virus [12],3.3 nM
same,EC50,Hepatitis C virus [13],6.6 nM
same,Fu,[14],0.91%
same,Drug uptake,[15],Tde
same,EC50,Hepatitis C virus [16],1.9 nM
same,Drug uptake,[17],Tde
same,bioavailability,[18],83%
same,EC50,Hepatitis C virus [19],2.7 nM
same,Ki,[20],0.063 nM
same,bioavailability,[21],10%
same,Kp at 2 h,[22],> 500
same,half-life,[23],0.93 h
same,clearance,[24],13.7 mL/min/kg
same,clearance,[25],14.8 mL/min/kg
same,EC50,Hepatitis C virus [26],1.5 nM
same,Vd,[27],0.94 L/kg
same,Vd,[28],0.84 L/kg
same,EC50,Hepatitis C virus [29],> 500 nM
same,half-life,[30],2.1 h
same,Ratio EC50,[31],<2
same,clearance,[32],3.17 mL/min/kg
same,Kp at 2 h,[33],100
same,Fa,[34],100%
same,EC50,Hepatitis C virus [35],3.1 nM
same,EC50,Hepatitis C virus [36],> 500 nM
same,Kp at 2 h,[37],55
same,Fu,[38],0.46%
same,fraction unbound,[39],< 0.01
same,Fa,[40],30%
same,fraction unbound,[41],< 0.01
same,half-life,[42],4.2 h
same,half-life,[43],28 to 41 h
same,fraction unbound,[44],< 0.01
